Test results taken from patent publication US20140377219A1, “HIV INHIBITORS” (New york Blood Center, Inc., priority 2011, published 2014).

Columns and labels:
[1] = tested on: laboratory-adapted HIV-1 IIIB strain; test: microbe, parasite or virus in culture; conditions: Human immunodeficiency virus 1, IIIB, MT2, read-out: MT-2 Cells IC50 (μM ± SD)
Experimental: In brief, 1×10^4 MT-2 cells were infected with HIV-1 at 100 TCID50 (50% tissue culture infective dose) (0.01MOI) in 200 μl medium in the presence or absence of small molecules at graded concentrations and incubated overnight. The culture supernatants were then removed and replaced with fresh media. On the fourth day post-infection, 100 μl of culture supernatants were collected from each well, mixed with equal volume of 5% Triton X-100 and tested for p24 antigen by sandwich-ELISA. The percent inhibition of p24 production and IC50 values were calculated by the GraphPad Prism software (GraphPad Software Inc.).

[2] = Cytotoxicity in MT-2 cells (XTT); assay type: cell-based; conditions: human; MT-2 cells, XTT, four days
Experimental: Cytotoxicity of small molecules in MT-2 cells and PBMC was measured by the XTT ((sodium 3′-(1-(phenylamino)-carbonyl)-3,4-tetrazolium-bis(4-methoxy-6-nitro)benzene-sulfonic acid hydrate)) method. Briefly, for MT-2 cells, 100 μl of a small molecule at graded concentrations was added to an equal volume of cells (10^5 cells/ml) in 96-well plates followed by incubation at 37° C. for four days, which ran parallel with the neutralization assay in MT-2 (except medium was added instead of virus). In the case of PBMC, 5×10^5 cells/ml was used and the cytotoxicity was measured after seven days. […] The percentage cytotoxicity and the CC50 values were calculated as described above.

[3] = Cytotoxicity in TZM-bl cells (XTT); assay type: cell-based; conditions: human; TZM-bl cells, XTT, 3 days; read-out: TZM-bl cells CC50 (μM ± SD)
Experimental: The cytotoxicity of small molecules in TZM-bl cells was measured by a colorimetric method using XTT (sodium 3′-(1-(phenylamino)-carbonyl)-3,4-tetrazolium-bis(4-methoxy-6-nitro)benzenesulfonic acid hydrate), a light yellowish tetrazolium dye. Briefly, 100 μl of a compound at graded concentrations was added to equal volume of cells (10^5/ml) in wells of 96-well plates followed by incubation at 37° C. for 3 days and addition of XTT (PolySciences, Inc., Warrington, Pa.).

`CC1CCCN(c2ccccc2CNC(=O)CCC(=O)Nc2ccc(Cl)cc2)C1` (stereo not drawn) [Compound 45, N^1-(4-chlorophenyl)-N^4-(2-(3-methylpiperidin-1-yl)benzyl)succinamide] showed a melting point of 162 to 163 °C, an IC50 [1] of over 97 µM and a CC50 at 4 days [2] of over 97 µM. The CC50 at 3 days [3] was over 97 µM.
In the case of `O=C(CCC(=O)Nc1ccc(Cl)cc1)NCc1ccc(S(=O)(=O)N2CCOCC2)cc1` [Compound 42, N^1-(4-chlorophenyl)-N^4-(4-(morpholinosulfonyl)benzyl)succinamide], the melting point is reported as 208 to 209 °C (dec.), the IC50 [1] is reported as 23.9 ± 1.8 µM and the CC50 at 4 days [2] is reported as 21.2 ± 1.5 µM. For the same molecule, the CC50 at 3 days [3] was about 30 µM.
For `O=C(CCC(=O)Nc1ccc(Cl)cc1)NCCCN1CCCC(O)C1` (stereo not drawn) [Compound 43, N^1-(4-chlorophenyl)-N^4-(3-(3-hydroxypiperidin-1-yl)propyl)succinamide], the melting point was 122 to 123 °C, the IC50 [1] was about 109 µM and the CC50 at 4 days [2] was about 109 µM. The CC50 at 3 days [3] was about 82 µM.
